Key:
hTEAD4 (nonacylated) [1] = target: T1, hTEAD4 (nonacylated) (Homo sapiens, UniProt Q15561); assay: FP-based competitive binding assay with FITC-palmitate tracer; conditions: relative to 19; for fold increase in the IC50 values: said of the IC50 values of both assays
T1 construct: N-terminal His6-tagged hTEAD4^217–434 was subcloned; made in house; host or cells: Escherichia coli BL21-CodonPlus (DE3)-RIPL
Protocol: To serially diluted solution of the tested compounds in 5 μL assay buffer [HEPES (25 mM) and NaCl (150 mM), pH 6.5 buffer], freshly prepared 5 μL of 0.15 μM protein solution was added and incubated at room temperature for 10 min followed by 5 μL of 30 nM FITC-palmitate solution, giving 15 μL final assay volume, 50 nM protein, and 10 nM tracer. The assay plate was shaken at room temperature for 1 h before measuring the FP (Ex/Em: 485/535 nm).

hTEAD4 (nonacylated) [2] = target: T1, hTEAD4 (nonacylated); assay: Thiol conjugation assay (CPM probe); assay type: binding; conditions: for fold reduction of TEAD binding in the thiol conjugation assay: relative to 19; for Inhibition of the CPM fluorescence signal increase: assay validation with known central pocket binders
Protocol: To serially diluted solutions of the tested compounds in 5 μL of assay buffer [HEPES (25 mM) and NaCl (150 mM) pH 6.5], freshly prepared 5 μL of 0.45 μM protein solution was added and incubated at room temperature for 10 min, followed by addition of 5 μL of 0.45 μM CPM solution, giving a 15 μL final assay volume, 150 nM protein, and 150 nM CPM. The assay plate was shaken at room temperature for 1 h before measuring the fluorescence (Ex/Em: 380/470 nm). Compound 19 was used as an internal standard to determine 100% inhibition.
A library of 14,000 compounds was screened in 1536-well plates using pH 6.5 MES buffer. To the preincubated solution of nonacylated hTEAD4 (0.15 μM final concentration) and compound solution (12.5 μM final concentration), CPM (0.15 μM final concentration) was added, and the assay plates were incubated at room temperature for 50 min before measuring the fluorescence (Ex/Em: 360/465 nm) using Spectramax Paradigm (Molecular Devices). Z′ = 0.6–0.8 (10-plates).

hTEAD4 (nonacylated) [3] = target: T1, hTEAD4 (nonacylated); assay: Differential scanning fluorimetry; assay type: binding; conditions: 20 μM protein, 80 μM inhibitor
Protocol: Nonacylated hTEAD4 (20 μM) was incubated in the absence or presence of inhibitors (80 μM) at 25 °C for 10 min. Then, SYPRO orange (Sigma-Aldrich) at a final concentration of 5× was added and the mixture was heated at a ramp rate of 1 °C/min in a qPCR machine (Applied Biosystems). The derivative of the SYPRO orange fluorescent intensity is plotted as a function of temperature.

[4] = Assay media stability (HPLC); assay type: physicochemical; conditions: MES buffer, pH 6.5, 1 h, rt
Protocol: The compounds were incubated in MES (25 mM), pH 6.5 buffer or HEPES (25 mM) and NaCl (150 mM) pH 6.5 buffer for an hour at room temperature before injecting into a reverse-phase HPLC system (ThermoScientific_Ultimate 3000) equipped with a C18 column (2/50 Nucleodur C18 gravity 1.8 μm von Macherey-Nagel).

TEAD target gene ANKRD1 = assay: RT-qPCR of TEAD target gene expression in HEK293 cells; assay type: cell-based; conditions: 6 h
Protocol: HEK293 cells were treated with DMSO or the indicated compound for the indicated duration. RNA was extracted using the RNeasy Plus Mini Kit (QIAGEN, Hilden, Germany) following the manufacturer’s procedure. DNA was removed on the column by DNase digestion with the RNase-free DNase Set (QIAGEN, Hilden, Germany) according to the manufacturer’s instructions. Following the manufacturer’s protocol, cDNA templates were synthesized from 700 ng total RNA using the QuantiTect Reverse Transcription Kit (QIAGEN, Hilden, Germany).
The expression levels of the TEAD target gene ANKRD1 was assessed by real-time quantitative PCR. A total of 100 ng of cDNA was amplified using 500 nM gene-specific primers and SsoAdvanced Universal SYBR Green Supermix (Bio-Rad Laboratories, Feldkirchen, Germany) in a total volume of 10 μL for 50 cycles. All measurements were performed in both technical and biological triplicates using a CFX96 Touch Real-Time PCR Detection System (Bio-Rad Laboratories, Feldkirchen, Germany).
The sequences of primers for ANKRD1 were forward 5′-[…]-3′ and reverse 5′-[…]-3′. The sequences of primers for GAPDH were forward 5′-[…]-3′ and reverse 5′-[…]-3′.

[5] = target: T2, hTEAD4 (nonacylated) with human YAP50–100 (Homo sapiens, UniProt Q15561); assay: FP-based competitive TEAD–YAP interaction assay (FITC-hYAP50–100); assay type: binding; conditions: versus 19
T2 construct: N-terminal His6-tagged hTEAD4^217–434 was subcloned; made in house; host or cells: Escherichia coli BL21-CodonPlus (DE3)-RIPL (TEAD4); solid-phase synthesis (YAP peptide)
T2 sequence (Q15561 217-434): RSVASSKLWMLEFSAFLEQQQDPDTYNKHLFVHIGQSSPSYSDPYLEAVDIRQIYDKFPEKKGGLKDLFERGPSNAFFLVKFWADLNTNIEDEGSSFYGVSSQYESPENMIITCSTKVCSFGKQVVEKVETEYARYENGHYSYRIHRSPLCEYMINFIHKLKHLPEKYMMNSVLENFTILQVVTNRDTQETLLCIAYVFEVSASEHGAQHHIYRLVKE
Protocol: All the TEAD–YAP binding experiments were performed in phosphate-buffered saline (PBS) (pH 7.5).
To serially diluted solution of the tested compounds in 5 μL of PBS, freshly prepared 5 μL of protein solution was added and incubated at room temperature for 10 min followed by addition of 5 μL of FAM-YAP^50–100 solution. The assay plate was shaken at room temperature for 1 h before measuring the FP (Ex/Em: 485/535 nm). Final protein and FAM concentrations are as follows (FAM/protein): hTEAD4 (nonacylated): 2 nM/5 nM, hTEAD4 (acylated): 3 nM/15 nM, mTEAD4_Cys360Ser: 10 nM/50 nM, and mTEAD4_Cys360Ala: 10 nM/50 nM.

hTEAD4 (nonacylated) [6] = target: T1, hTEAD4 (nonacylated); assay: Whole-protein ESI–MS of covalent modification; assay type: binding; conditions: 8 equiv of compound, 1 h, rt
Protocol: The protein solution (1 μL 5 μM) was injected to UPLC-MS (ThermoScientific_UltiMate 3000 LC coupled to a Velos Pro MS) through a desalting column (MassPREP Online desalting, 2.1 × 10 mm). For reactions, 1 μM of the protein was incubated at room temperature for 1 h with 8 equiv of the compound in HEPES (25 mM) and NaCl (150 mM) pH 6.5 buffer. Then, the mixture was centrifuged before injecting 5 μL. The deconvolution of m/z values was performed using Promass Xcalibur software.

mTEAD4 (nonacylated) = target: T3, mTEAD4 (nonacylated) (Mus musculus, UniProt Q62296); assay: 1H–15N HSQC NMR; assay type: binding; conditions: 0.5 mM compound, versus DMSO
T3 construct: made in house
T3 sequence (Q62296 210-427 limits assumed): as the sequence (Q15561 217-434) above, with V3I, Q19R, G35S, A48T, D67E, E91D, S96A, S142L counted along it
Protocol: The ^13C/^15N-labeled mTEAD4 was prepared following a protocol established earlier,[45] and the protein was deacylated as described above for hTEAD4. ^1H–^15N HSQC spectra in the presence of DMSO or the test compound (0.5 mM) were collected at 37 °C on a Bruker 600 MHz magnet equipped with a cryoprobe in 20 mM HEPES, pH 7.3 buffer containing 150 mM NaCl and 1 mM DTT. The spectra were processed and overlaid.

TEAD central pocket = target: TEAD central pocket; parameters: method as in PMID 26592798; conditions: read-out: ITC Kd; cited from earlier work
[7] = parameters: method as in PMID 21164073; conditions: acidic 2-OH group; cited from earlier work
hTEAD4 (nonacylated) [8] = target: T1, hTEAD4 (nonacylated); assay: Saturation binding of FITC-palmitate (FP); conditions: 10 nM tracer
Protocol: To a serially diluted solution of nonacylated hTEAD4 in 12 μL of assay buffer [HEPES (25 mM) and NaCl (150 mM) pH 6.5], 8 μL of 25 nM FITC-palmitate solution was added, giving 20 μL final assay volume with a 10 nM tracer. The assay plate was incubated at room temperature for 1 h before measuring FP (Ex/Em: 485/535 nM).

T1 sequence (Q15561 217-434): as the sequence (Q15561 217-434) above

Compound: O=c1cc(CO)oc(C(Nc2ccccc2)c2ccccn2)c1O (stereo not shown) [Compound 40, 3-Hydroxy-6-(hydroxymethyl)-2-((phenylamino)(pyridin-2-yl)methyl)-4H-pyran-4-one]
- fold lowering of inhibitory activity in the FP assay (hTEAD4 (nonacylated) [1]): 2–3 fold

Compound: O=c1cc(CO)oc(C(Nc2ccccc2)C2CCCCC2)c1O (stereo not shown) [Compound 30, 2-(Cyclohexyl(phenylamino)methyl)-3-hydroxy-6-(hydroxymethyl)-4H-pyran-4-one]
- fold reduction of TEAD binding in the thiol conjugation assay (hTEAD4 (nonacylated) [2]): 100 fold

Compound: O=c1cc(CO)oc(C(Nc2nccs2)c2ccccc2)c1O (stereo not shown) [Compound 27, 3-Hydroxy-6-(hydroxymethyl)-2-(phenyl(thiazol-2-ylamino)methyl)-4H-pyran-4-one]
- fold increase in the IC50 values (hTEAD4 (nonacylated) [1]): more than 20 fold
- Tm shift (hTEAD4 (nonacylated) [3]): did not induce any change

Compound: O=c1cc(CO)oc(C(Nc2ncccn2)c2ccccc2)c1O (stereo not shown) [Compound 26, 3-Hydroxy-6-(hydroxymethyl)-2-(phenyl(pyrimidin-2-ylamino)methyl)-4H-pyran-4-one]
- fold increase in the IC50 values (hTEAD4 (nonacylated) [1]): more than 20 fold

Compound: COc1c(C(Nc2ccccc2)c2ccccc2)oc(CO)cc1=O (stereo not shown) [Compound 45, 6-(Hydroxymethyl)-3-methoxy-2-(phenyl(phenylamino)methyl)-4H-pyran-4-one]
- stability in assay medium [4]: stable
- activity in the thiol conjugation assay (hTEAD4 (nonacylated) [2]): inactive
- reduction of the mRNA level of ANKRD1 compared to the DMSO control (TEAD target gene ANKRD1): only a minimal effect
- fold lower activity in TEAD–YAP interaction assay [5]: > 100 fold
- Tm shift (hTEAD4 (nonacylated) [3]): did not induce any change
- modification of the protein (whole-protein ESI–MS) (hTEAD4 (nonacylated) [6]): modification of TEAD was not observed
- effect on 1H–15N HSQC spectrum (mTEAD4 (nonacylated)): did not induce a significant change

Compound: O=C(CCl)c1ccccc1Nc1cccc(C(F)(F)F)c1 [Compound 3, reference compound]
- Inhibition of the CPM fluorescence signal increase (hTEAD4 (nonacylated) [2]): inhibited the signal increase in a dose-dependent manner

Compound: O=C(O)c1ccccc1Nc1cccc(C(F)(F)F)c1 [Compound 1, flufenamic acid, reference compound]
- Inhibition of the CPM fluorescence signal increase (hTEAD4 (nonacylated) [2]): inhibited the signal increase in a dose-dependent manner
- Kd (TEAD central pocket): 73 µM

Compound: O=C(O)c1cccnc1Nc1cccc(C(F)(F)F)c1 [Compound 2, niflumic acid, reference compound]
- Inhibition of the CPM fluorescence signal increase (hTEAD4 (nonacylated) [2]): inhibited the signal increase in a dose-dependent manner
- Kd (TEAD central pocket): 28 µM

Compound: O=c1cc(CO)occ1O [kojic acid]
- pKa [7]: 7.9

Compound: COc1c(C(Nc2ccccn2)c2ccccc2F)oc(CO)cc1=O (stereo not shown) [Compound 46, 2-((2-Fluorophenyl)(pyridin-2-ylamino)methyl)-6-(hydroxymethyl)-3-methoxy-4H-pyran-4-one]
- activity in the thiol conjugation assay (hTEAD4 (nonacylated) [2]): inactive

Compound: O=c1cc(CO)oc(CNc2ccccc2)c1O [Compound 32, 3-Hydroxy-6-(hydroxymethyl)-2-((phenylamino)methyl)-4H-pyran-4-one]
- fold reduction of TEAD binding in the thiol conjugation assay (hTEAD4 (nonacylated) [2]): 100 fold

Compound: CCCCCCCCCCCCCCCC(=O)O [palmitic acid, reference compound]
- Inhibition of the CPM fluorescence signal increase (hTEAD4 (nonacylated) [2]): inhibited the signal increase in a dose-dependent manner

Compound: CCCCCCCCCCCCCCCC(=O)NCCCOCCOCCOCCCNC(=S)Nc1ccc(-c2c3ccc(=O)cc-3oc3cc(O)ccc23)c(C(=O)O)c1 [Compound S4, 2-(6-Hydroxy-3-oxoi-3H-xanthen-9-yl)-5-(3-(15-oxo-4,7,10-trioxa-14-azatriacontyl)thioureido)benzoic Acid]
- Kd (hTEAD4 (nonacylated) [8]): 0.028 µM

Compound: CC(C)C(Nc1ccccc1)c1oc(CO)cc(=O)c1O (stereo not shown) [Compound 31, 3-Hydroxy-6-(hydroxymethyl)-2-(2-methyl-1-(phenylamino)propyl)-4H-pyran-4-one]
- fold reduction of TEAD binding in the thiol conjugation assay (hTEAD4 (nonacylated) [2]): 100 fold

Compound: O=c1cc(CO)oc(C(Nc2nc3ccccc3[nH]2)c2ccccc2)c1O (stereo not shown) [Compound 28, 2-(((1H-Benzo[d]imidazol-2-yl)amino)(phenyl)methyl)-3-hydroxy-6-(hydroxymethyl)-4H-pyran-4-one]
- fold increase in the IC50 values (hTEAD4 (nonacylated) [1]): more than 20 fold

Compound: O=c1cc(CO)oc(C(Nc2ccccn2)c2ccc(Br)cc2)c1O (stereo not shown) [Compound 42, 2-((4-Bromophenyl)(pyridin-2-ylamino)methyl)-3-hydroxy-6-(hydroxymethyl)-4H-pyran-4-one]
- ΔTm at 80 µM (hTEAD4 (nonacylated) [3]; read-out: Tm shift): -2 °C
